In patent US20260273033A1, “NOVEL LIPID NANOPARTICLE FORMULATIONS FOR DELIVERY OF NUCLEIC ACIDS” (CureVac SE, priority 2023, published 2026):

Experiments:
[1] = in vivo; cited from earlier work
[2] = Immune responses of mRNA vaccines in vivo, DPhyPE versus DSPC as neutral lipid; conditions: DPhyPE versus DSPC as neutral lipid in LNP compositions

Molecule	accumulation in tissue [1]	excretion [1]	immune responses of mRNA vaccines in vivo, neutral lipid comparison [2]
poly(2-methyl-2-oxazoline) [PMOZ]	no significant accumulation in tissue	rapidly excreted by the kidney	–
CC(C)CCCC(C)CCCC(C)CCCC(C)CC(=O)OC[C@H](COP(=O)(O)OCCN)OC(=O)CC(C)CCCC(C)CCCC(C)CCCC(C)C (stereo partly drawn) [DPhyPE, 1,2-diphytanoyl-sn-glycero-3-phosphoethanolamine]	–	–	clear advantage over DSPC
